From patent US12344623B2, “Thiazolopyridine derivatives as adenosine receptor antagonists” (Merck Patent GmbH, priority 2019, dated 2025) come the findings set out here.

A value given as a limit tells only on which side of the number the result lay.

For data set [1], the system named is mouse Pan T cells. Briefly: mTcell assay, IL-2, rescue of cytokine secretion, agonist NECA. Type of data set: cell-based. Particulars: mouse Pan T cells, CD3/CD28 activated, NECA 1 μM, IL-2 rescue, 24 h. The source says:
Adenosine (Ado) in tumor microenvironment can inhibit T cell activity by signaling through A2A receptors and suppress cytokine secretion by T cells. […] Potential A2A antagonists or A2A/A2B dual antagonists can rescue T cells from this inhibition. Herein, we describe the in vitro system we established using Pan T cells from mouse spleens to screen potential A2A antagonists or A2A/A2B dual antagonists for their activity. The method described involves the use of CD3/CD28 pre-coated beads to stimulate Pan T cells purified from mouse splenocytes, combined with the addition of A2A agonist along with potential A2A or A2A/A2B dual antagonists to evaluate potentiation of T cell cytokine production.
Briefly, mouse Pan T cells are purified from spleens of BALB/c mice using Pan T cell isolation kit Mouse II (MACS Miltenyi biotech Cat # Order no. 130-095-130) according to manufacturer's protocol. The purified T cells are seeded in Nunc™ 96-Well Polystyrene Round Bottom Microwell Plates in RPMI medium with 10% heat inactivated fetal bovine serum. The cells are rested at 37° C. for 1 h before activating with CD3/CD28 pre-coated beads (Dynabeads™ Mouse T-Activator CD3/CD28; Cat #11456D). After 30 min the cells are treated with varying doses of test antagonist(s). […] After 24 h incubation IL-2 levels in the supernatants are measured by ELISAs according to manufacturer's protocol (R&D systems Cat #DY402 (IL-2)). Once the concentrations are calculated, the difference of cytokine concentration of DMSO control and agonist alone control is calculated and the percentage of rescue by each concentration of antagonist is calculated by using Microsoft Excel. These percentages of cytokine rescue in a dose dependent manner of antagonist is plotted in GraphPad Prism software and IC50 is calculated.

For data set [2], the target named is T1, human A3 receptor (Homo sapiens, UniProt P0DMS8).
T1 construct: expressed in transfected cells; host or cells: CHO
T1 sequence (P0DMS8 1-318): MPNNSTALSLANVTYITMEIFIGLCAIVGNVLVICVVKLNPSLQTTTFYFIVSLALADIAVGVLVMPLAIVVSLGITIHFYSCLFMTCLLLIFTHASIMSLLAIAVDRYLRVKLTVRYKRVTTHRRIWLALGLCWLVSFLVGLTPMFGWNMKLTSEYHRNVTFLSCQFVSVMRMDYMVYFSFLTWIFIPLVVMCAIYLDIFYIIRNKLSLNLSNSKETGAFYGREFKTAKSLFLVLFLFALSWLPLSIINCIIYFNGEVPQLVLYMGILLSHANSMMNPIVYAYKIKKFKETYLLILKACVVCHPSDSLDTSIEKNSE
Put plainly: Functional A3 receptor activity, recombinant CHO cells, cAMP (HTRF), forskolin, agonist IB-MECA. Type of data set: cell-based. Particulars: recombinant CHO cells, forskolin, agonist IB-MECA; read-out: Functional A3 receptor activity, CHO, cAMP, IC50. In short, it runs like this: (§1)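 Gi-coupled readout: CHO cells expressing human A1 or A3 receptor were treated with forskolin, test compound and agonist (CPA for A1, IB-MECA for A3) for 30 min; cellular cAMP was then measured by HTRF. Data were normalized to inhibitor and DMSO controls and curve-fitted.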
A general note: TR-FRET usually uses a lanthanide donor and a delayed reading to cut background.

The test system of data set [3] is human T cells. Briefly: hTcell data, IL-2 (human T cells, IL-2 readout; method not given). The data set is classed as cell-based. The conditions noted are these: compounds of the present invention.
The nature of data set [4]: Pharmacokinetic properties in mouse after single intravenous and oral administration. Type of data set: in vivo. As for the experimental part:
The objective of the study was to obtain information on the pharmacokinetic properties of the compounds of the present invention in female Wistar rats/mice following single intravenous and oral administration.
Female Wistar rats/mice (n=6) received either a single intravenous (bolus) injection or an oral administration (by gavage) of the tested compound. Doses of 0.2 and 10 mg/kg (per compound) were given intravenously and per os, respectively, as a solution in DMSO (0.2%)/PEG 200 (40%)/water for iv administration and as a suspension in Methocel (0.5%)/Tween 20 (0.25%) in water for oral dosing. Consecutive blood samples were taken sub-lingually under isoflurane inhalation from 3 animals per route of administration after 0.1 (only iv), 0.25 (only po), 0.5, 1, 2, 4, 6 and 24 h and were further processed to obtain plasma. Also, urine and feces samples of 3 rats per route of administration were collected over the time interval from 0-24 h and were pooled for analysis.
The concentrations of the compounds in plasma, feces were quantified using an UPLC method with tandem mass spectrometric detection (LC-MS/MS) previously developed at the ‘Institute of Drug Metabolism and Pharmacokinetics’. The LCMS/MS system consisted of a Waters Acquity UPLC coupled to an AB Sciex mass spectrometer API 5500 Q-trap. The UPLC separation was carried out on a reversed phase column (HSS T3, […], 2.1×50 mm) using a mobile phase gradient with 0.1% formic acid and acetonitrile as eluents. The detection of the compounds was performed using multiple reaction monitoring in the positive ionization mode. Plasma samples were spiked with internal standard (20 μl) and the analyte was extracted from the matrix using tertiary-butyl methyl ether (tBME). The organic phase was evaporated to dryness under a stream of nitrogen. The residue was dissolved in acetonitrile/0.1% formic acid for LC-MS/MS analysis. Feces samples were homogenized with 4-times their volume of an ethanol/water mixture (4:1, v/v). Aliquots of the aqueous-ethanolic extracts were spiked with internal standard, diluted with acetonitrile/water (1:1, v/v) and directly injected into the LC-MS/MS system.
Pharmacokinetic parameters Cmax and tmax were taken from the observed data. […] AUC values were calculated by non-compartmental analysis using the linear up/log down method. Numerical data for mean plasma concentrations and derived pharmacokinetic parameters were rounded to 3 significant digits for presentation.

In data set [5] the target is T2, human A1 receptor (Homo sapiens, UniProt P30542).
T2 construct: expressed in transfected cells; host or cells: CHO
T2 sequence (P30542 1-326): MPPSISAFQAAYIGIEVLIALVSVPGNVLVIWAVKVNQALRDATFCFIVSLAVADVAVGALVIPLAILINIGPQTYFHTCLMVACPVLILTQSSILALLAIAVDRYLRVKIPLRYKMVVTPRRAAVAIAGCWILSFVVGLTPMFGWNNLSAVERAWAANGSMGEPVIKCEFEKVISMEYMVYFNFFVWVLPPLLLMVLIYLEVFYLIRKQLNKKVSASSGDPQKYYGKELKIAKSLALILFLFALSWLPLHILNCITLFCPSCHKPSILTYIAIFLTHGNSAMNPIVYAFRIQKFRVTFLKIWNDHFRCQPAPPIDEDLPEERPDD
Briefly: Functional A1 receptor activity, recombinant CHO cells, cAMP (HTRF), forskolin, agonist CPA. Type of data set: cell-based. The conditions noted are these: recombinant CHO cells, forskolin, agonist CPA; read-out: Functional A1 receptor activity, CHO, cAMP, IC50. In short, it runs like this: as §1

A word on the IC50: it is the concentration at which inhibition is half-maximal. As a reminder, the Cmax is the highest concentration seen after dosing. Regarding `COc1ncc(C2=CCOCC2)c2sc(NC(=O)N3CC[C@@]4(CCCOC4)C3)nc12` [Compound 25, (S)-7-Oxa-2-aza-spiro[4.5]decane-2-carboxylic acid [7-(3,6-dihydro-2H-pyran-4-yl)-4-methoxy-thiazolo[4,5-c]pyridin-2-yl]-amide], the half-maximal inhibitory concentration (IC50) in data set [1] was less than 10 nM; in data set [2] it was more than 1000 nM; in data set [3], less than 10 nM; in data set [5] it was more than 1000 nM. Also, in data set [4] (@0.2 (mg/kg), % of dose excreted in feces), the Feces iv is given as 22@0.2%. Also, the clearance in data set [4] (female, plasma, 0.2 mg/kg) is 77.5 mL/min/kg. This compound displayed a Cmax in data set [4] (female, plasma, 0.2 mg/kg, dose-normalized to 1 mg/kg) of 500 ng/mL. The Vd in data set [4] (female, plasma, 0.2 mg/kg, read-out: Vss) stood at 3.16 L/kg. The half-life in data set [4] (female, plasma, 0.2 mg/kg, read-out: t½ (converted)) was 54.6 min.
